Experimental data published in patent US5324747A, “N-substituted anilines, inhibitors of phospholipases A2” (Hoffmann-La Roche Inc., priority 1992, dated 1994).
Each block holds one compound with its values, some of them ahead of it.

Key:
[1] = tested on: Croton Oil Mouse Ear Edema; assay: Croton Oil Mouse Ear Edema Test; assay type: in vivo, CD-1 mice; details: topical, coapplied, 6 hours
Procedure: Twenty five μl of a 1% croton oil solution [dissolved in a mixture of pyridine/water/diethyl ether at a ratio of 5/20/75 (croton oil vehicle)] are applied to the outer side of the right ear of 3-4 week old made CD-1 mice (8 animals per group). The test compounds are dissolved directly in the 1% croton oil solution at various concentrations and coapplied. Control animals receive 25 μl of croton oil vehicle on the right ear. Biopsy punches are removed at 6 hours from the right ear of the animals using a 6 mm skin trephine (Roboz, Washington, D.C.) and the wet weight of the ear punches is determined. The weight of the biopsy punches is a measure of ear inflammation, primarily edema. The data are expressed as percent inhibition relative to control groups.

[2] = tested on: Naja naja snake venom PLA2 (SV-PLA2); assay: Assay for inhibition of snake venom PLA2 (SV-PLA2) in vitro; assay type: biochemical; details: read-out: Inhib of SV-PLA2 IC50
Procedure: ASSAY FOR INHIBITION OF SNAKE VENOM PLA2 (SV-PLA2) IN VITRO
Several representative compounds of the invention were also tested as inhibitors of Naja naja snake venom PLA2 (SV-PLA2). The assay employed in this study was the spectrophotometric method described by: C. Vigo, G. P. Lewis and P. J. Piper in Biochemical Pharmacology, 29:623-627 (1983), which was modified as described by: A. F. Welton, L. D. Tobias, C. Fiedler-Nagy, W. Anderson, W. Hope, K. Meyers and J. W. Coffey in "Plant Flavonoids in Biology and Medicine: Biochemical, Pharmacological and Structure-Activity Relationships", p 231-242, (1986) Alan R. Liss, Inc. The PLA2 paw edema model, (data in Table I) is initiated by injection of SV-PLA2.

PLA2 Rat Paw Edema = assay: Phospholipase A2 Rat Paw Edema; assay type: in vivo, Lewis rats; details: for inhibition in vivo at 30 mg/kg: Rattus norvegicus, 2 hr, read-out: % Inhib of PLA2 Rat Paw Edema 2 hr (30 mg/kg)
How it was run: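 Lewis rats (~200 g, n=7) dosed i.p. (in DMSO) or orally (in Labrafil M-1944CS) 1 h before subplantar injection of 5 ug Naja naja PLA2 into right hind paw. Paw volume by plethysmometry at 0.5, 2 and 4 hr minus baseline; % change versus vehicle, Student's t-test.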

HSF-PLA2 = target: T1, HSF-PLA2 (Homo sapiens, UniProt P14555); assay: Assay for Inhibition of HSF-PLA2 In Vitro; assay type: biochemical; details: read-out: Inhib of HSF-PLA2 IC50
T1 construct: extracellular enzyme obtained from human synovial fluid (HSF-PLA2); from tissue; host or cells: pooled human synovial fluid, added at 0.1% (v/v)
T1 sequence (P14555 21-144): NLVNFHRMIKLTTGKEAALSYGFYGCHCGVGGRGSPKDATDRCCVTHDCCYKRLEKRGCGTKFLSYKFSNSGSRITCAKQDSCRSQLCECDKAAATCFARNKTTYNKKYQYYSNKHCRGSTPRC
How it was run: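 Extracellular PLA2 isolated from human synovial fluid, incubated 30 min at 37 °C with 14C-labelled phospholipid substrate in duplicate. Lipids were chloroform-extracted, and released 14C-oleic acid was separated from substrate by silica TLC; a no-enzyme control was run in each experiment.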

[3] = tested on: Acetic Acid-Induced Colitis in Rats; assay: Acetic Acid-Induced Colitis in Rats; assay type: in vivo, rats (Sprague-Dawley)
From the text: Acetic Acid-Induced Colitis in Rats The rat acetic acid-induced colitis bioassay has been described by J. E. Krawisz, et al. in Amer. J. Proc. Gastro. Col. Rec. Surg. 31: 11-18 (1980), and by P. Sharon and W. F. Stenson in Gastroenterology 88: 55-63 (1985) and 86:453-460 (1984). Acetic acid-induced colitis is characterized by the movement of inflammatory cells into the colon, with the number of such cells in the mucosa being measured by the activity of myeloperoxidase, a marker enzyme for these cells. Positive desirable activity is indicated by a reduction in the high levels of myeloperoxidase caused by acetic acid. […] The animals were administered a second dose of the test compound in the same amount about 16 hours later. Then 24 hours after the acetic acid treatment, the animals were sacrificed. The colonic mucosa was surgically removed and homogenized in an aqueous buffer at pH 6 with a Tissumizer or similar device and myeloperoxidase was measured in the homogenate using o-phenylenediamine as a cromagen, as described by […] and A. Bartlett in "The Enzyme Linked Immunosorbent Assay (ELISA)", Zoological Soc., London, 1979, pages 29-30. Control animals were pretreated with the vehicle and saline in place of acetic acid.

mouse skin = details: cited from earlier work
[4] = tested on: adjuvant arthritis model in rats; assay: Established Adjuvant Arthritis Test; assay type: in vivo; details: 30 mg/kg ip
Procedure: Established Adjuvant Arthritis Test
Representative compounds of the invention were tested in the standard adjuvant arthritis model in rats, induced by Freunds complete adjuvant, as described by C. E. Brinckerhoff, J. W. Coffey and A. C. Sullivan, Science, 221, p. 756-758 (1983).

SMILES: CCCCCCCCOc1cc(OCCCCCCCC)cc(N(CC(=O)O)CC(=O)O)c1 [Example 6c, N-(carboxymethyl)-N-[3,5-bis(octyloxy)phenyl]glycine]
% Inhib of Croton Oil Mouse Ear Edema (1 mg) [1]: 0% | IC50 [2]: 22 nM | inhibition in vivo at 30 mg/kg (PLA2 Rat Paw Edema): 7% | IC50 (HSF-PLA2): 400 nM

SMILES: CCCCCCCCc1ccc(N(CC(=O)O)CC(=O)O)cc1 [Example 39c, N-(carboxymethyl)-N-(4-octylphenyl)glycine]
IC50 [2]: 66 nM | IC50 (HSF-PLA2): 1700 nM

SMILES: CCCCCCCCCCNC(=O)c1cc(C(=O)NCCCCCCCCCC)cc(N(CC(=O)O)CC(=O)O)c1 [Example 16, N-(Carboxymethyl)-N-[3,5-bis[(decylamino)carbonyl]phenyl]glycine]
% Inhib of Croton Oil Mouse Ear Edema (1 mg) [1]: 10% | IC50 [2]: 50 nM | % Inhibition of Myeloperoxidase Accumulation at 10 mg/kg po [3]: 212 ± 124% | inhibition in vivo at 30 mg/kg (PLA2 Rat Paw Edema): 0% | IC50 (HSF-PLA2): 300 nM

SMILES: CCCCCCCCCCCCOc1cc(OCCCCCCCCCCCC)cc(N(CC(=O)O)CC(=O)O)c1 [Example 6d, N-(carboxymethyl)-N-[3,5-bis(dodecyloxy)phenyl]glycine]
% Inhib of Croton Oil Mouse Ear Edema (1 mg) [1]: 21% | IC50 [2]: 170 nM | IC50 (HSF-PLA2): 50 nM

SMILES: COc1ccc2c(c1)c(CC(=O)O)c(C)n2C(=O)c1ccc(Cl)cc1 [Indomethacin]
TPA-mediated increase in epidermal PGE2 levels (mouse skin): prevented | TPA-mediated induction of epidermal cell ornithine decarboxylase (mouse skin): prevented

IC50 (HSF-PLA2): 170 nM
SMILES: CCCCCCCCCCCCCCCCCCOc1cccc(N(CC(=O)O)CC(=O)O)c1 [Example 36, N -(Carboxymethyl)-N-[3-(octadecyloxy)phenyl]glycine]
% Inhib of Croton Oil Mouse Ear Edema (1 mg) [1]: 21% | % Inhibition of Myeloperoxidase Accumulation at 10 mg/kg po [3]: 190 ± 76%

SMILES: CCCCCCCCCCOc1cc(OCCCCCCCCCC)cc(N(CC(=O)O)CC(=O)O)c1 [Example 6, N-(Carboxymethyl)-N-[3,5-bis(decyloxy)phenyl]glycine]
Change in Paw Volume (mL) Treated [4]: -0.04 ± 0.24 mL | % Inhib of Croton Oil Mouse Ear Edema (1 mg) [1]: 13% | IC50 [2]: 17 nM | inhibition in vivo at 30 mg/kg (PLA2 Rat Paw Edema): 45% | IC50 (HSF-PLA2): 240 nM

SMILES: CCCCCCCCCCCCCCOc1cc(OCCCCCCCCCCCCCC)cc(N(CC(=O)O)CC(=O)O)c1 [Example 6e, N-(carboxymethyl)-N-[3,5-bis(tetradecyloxy)phenyl]glycine]
% Inhibition of Myeloperoxidase Accumulation at 10 mg/kg po [3]: 145 ± 72% | % Inhib of PLA2 Rat Paw Edema 2 hr (PLA2 Rat Paw Edema; (50 mg/kg)): 44% | IC50 (HSF-PLA2): 130 nM
